Measurements from patent US20080214606A1, “Methods for the Identification and Use of Compounds Suitable for the Treatment of Drug Resistant Cancer Cells” (The Government of the United States of America as …, priority 2004, published 2008).

Columns and labels:
[1] = molecular target: T1, ABCB11 (Homo sapiens, UniProt O95342); assay: Correlation of ABCB11 expression with drug sensitivity across the NCI-60; format: cell-based; conditions: Pearson correlation of ABCB11 expression with sensitivity of the 60 cell lines; 1429 compounds; inverse, p < 0.0001
T1 construct: profiled in 60 diverse cancer cell lines (the NCI-60) using real-time RT-PCR; endogenous in cells; host or cells: NCI-60 human cancer cell lines
Experimental: (§1) Expression levels are measured by real-time quantitative RT-PCR using the LightCycler RNA Amplification SYBR Green kit and a LightCycler machine (Roche Biochemicals, Indianapolis, Ind.). […] When possible, the amplicons are designed to encompass exon-intron boundaries to avoid amplification of genomic DNA. Since the Syber Green assay detects accumulation of double stranded DNA, primers are selected (from a battery consisting of about 200 primers) that amplified a single product of the correct size.
(§2) RT-PCR is carried out on 150 ng total RNA, in the presence of 250 nM specific primers. Following reverse transcription (20 min at 50° C.), the PCR reaction consists of 45 cycles of denaturation (15 sec at 95° C.), annealing (30 sec at 58° C.), and elongation (30 sec at 72° C.). No-template (water) reaction mixtures are prepared as negative controls.
(§3) During PCR amplification, fluorescence emission is measured and recorded in real time by the LightCycler. Crossing point values are calculated, using the LightCycler software package, by the Fit Points analysis method, with baseline fluorescence set at 1. The SyberGreen assay measures accumulation of double-stranded products, and the appearance of primer dimers limits quantitation at high cycle numbers. The specificity of amplified products is verified by melting-curve analysis and agarose gel electrophoresis (not shown). The raw results are expressed as number of cycles to reach the crossing point. If the desired product is not detected, the corresponding value is adjusted to crossing points indicating no expression. To assess the contribution of experimental artifacts, selected cell lines are assessed in replicate.
(§4) The two are combined to form a joint dataset that includes 1429 compounds.
(§5) In the Benjamini-Hochberg procedure the p-values are computed in the standard way by permutation, assuming that all distributions are exchangeable: the number of values in the permuted data with correlations over a threshold, divided by the number of compounds and by the number of permutations. In this analysis, the False Discovery Rate (q-value) at which each compound would be declared was calculated using the step-up procedure for positively correlated test statistics (again true because all correlations being compared are computed against the same ABC gene): in this procedure the first q-value for the largest correlation is the Bonferroni-corrected p-value for that gene; then further q-values are calculated as qj=max(pj*1429/j, qj-1). This procedure limits the expected proportion of false positives in the list 1, . . . , j to at most qj.

[2] = molecular target: ABCB1 (Homo sapiens, UniProt P08183); assay: Correlation of ABCB1 expression with drug sensitivity across the NCI-60
How it was run: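 SYBR Green real-time RT-PCR on 150 ng total RNA with 250 nM primers: RT 20 min at 50 °C, then 45 cycles; expression taken as crossing-point cycle number. Correlated with drug sensitivity of 1429 compounds across the cell panel; permutation p-values with step-down and step-up (FDR q-value) multiple-testing correction.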

[3] = system: KB-V1 cells (over-express MDR1-P-gp) vs parental KB-3-1 cells; assay: MTT assay using the KB-3-1/KB-V1 cell pair; format: cell-based, human
Experimental: Cell survival is measured by the MTT (3-(4,5-Dimethylthiazol-2-yl)-2,5-diphenyltetrazolium) Assay. Cells are seeded in 100 μl medium at a density of 5000 cells/well in 96 well plates, and serially diluted drug (with or without 2 μM PSC 833) is added the following day in 100 μl medium to give the indicated final concentration. Cells are then incubated for 72 hrs at 37° C. in 5% CO2, and the MTT assay is performed according to the manufacturer's instructions (Molecular Probes, Eugene, Oreg.).
To test whether our approach using the NCI-60 does, in fact, identify new substrates, an MTT assay is used to test all top-scoring compounds that were available from DTP for follow-up experiments. KB-3-1, a human carcinoma cell line, and KB-V1, a multidrug resistant derivative of KB-3-1 that over-expresses MDR1-P-gp (Shen et al., 1986, J. Biol. Chem. 261:7762-7770), are used for the tests. […] This resistance of KB-V-1 cells is invariably reversible by PSC 833. The intrinsic fluorescence of one of the compounds, NSC 634791, allows for the measurement of the effect of MDR1 activity on its export from cells.

[4] = molecular target: T2, ABCC7 (Homo sapiens, UniProt P13569); assay: Correlation of ABCC7 expression with drug sensitivity across the NCI-60; format: cell-based; conditions: Pearson correlation of ABCC7 expression with sensitivity of the 60 cell lines; 1429 compounds; inverse, p < 0.0001
T2 construct: profiled in 60 diverse cancer cell lines (the NCI-60) using real-time RT-PCR; endogenous in cells; host or cells: NCI-60 human cancer cell lines
Experimental: as §1, §2, §3, §4
(§6) To determine quantitatively how well the 47 genes cluster the cell lines by their tissues of origin, a statistical method is employed wherein the kappa statistic is used to indicate how well the observed clusters correspond to the nine tissue-of-origin classifications. […] To control the overall false type 1 error rate, both a step-down procedure (Westfall and Young, 1993, Resampling-Based Multiple Testing: Examples and Methods for p-value Adjustment (New York: Wiley)) and a step-up procedure (Reiner et al., 2003, Bioinformatics 19:368-375) were employed to adjust for multiple testing of all 47 genes simultaneously. In the Benjamini-Hochberg procedure the p-values are computed in the standard way by permutation, assuming that all distributions are exchangeable: the number of values in the permuted data with correlations over a threshold, divided by the number of compounds and by the number of permutations. In this analysis, the False Discovery Rate (q-value) at which each compound would be declared was calculated using the step-up procedure for positively correlated test statistics (again true because all correlations being compared are computed against the same ABC gene): in this procedure the first q-value for the largest correlation is the Bonferroni-corrected p-value for that gene; then further q-values are calculated as qj=max(pj*1429/j, qj-1). This procedure limits the expected proportion of false positives in the list 1, . . . , j to at most qj.

[5] = molecular target: T3, ABCA3 (Homo sapiens, UniProt Q99758); assay: Correlation of ABCA3 expression with drug sensitivity across the NCI-60; format: cell-based; conditions: Pearson correlation of ABCA3 expression with sensitivity of the 60 cell lines; 1429 compounds; inverse, p < 0.0001
T3 construct: profiled in 60 diverse cancer cell lines (the NCI-60) using real-time RT-PCR; endogenous in cells; host or cells: NCI-60 human cancer cell lines
Experimental: as §1, §2, §3, §4, §6

[6] = molecular target: T4, ABCC3 (Homo sapiens, UniProt O15438); assay: Correlation of ABCC3 expression with drug sensitivity across the NCI-60; format: cell-based; conditions: Pearson correlation of ABCC3 expression with sensitivity of the 60 cell lines; 1429 compounds; inverse, p < 0.0001
T4 construct: profiled in 60 diverse cancer cell lines (the NCI-60) using real-time RT-PCR; endogenous in cells; host or cells: NCI-60 human cancer cell lines
Experimental: as §1, §2, §3, §4, §6

[7] = molecular target: T5, ABCB5 (Homo sapiens, UniProt Q2M3G0); assay: Correlation of ABCB5 expression with drug sensitivity across the NCI-60; format: cell-based; conditions: Pearson correlation of ABCB5 expression with sensitivity of the 60 cell lines; 1429 compounds; inverse, p < 0.0001
T5 construct: profiled in 60 diverse cancer cell lines (the NCI-60) using real-time RT-PCR; endogenous in cells; host or cells: NCI-60 human cancer cell lines
T5 sequence (Q2M3G0 1-1257): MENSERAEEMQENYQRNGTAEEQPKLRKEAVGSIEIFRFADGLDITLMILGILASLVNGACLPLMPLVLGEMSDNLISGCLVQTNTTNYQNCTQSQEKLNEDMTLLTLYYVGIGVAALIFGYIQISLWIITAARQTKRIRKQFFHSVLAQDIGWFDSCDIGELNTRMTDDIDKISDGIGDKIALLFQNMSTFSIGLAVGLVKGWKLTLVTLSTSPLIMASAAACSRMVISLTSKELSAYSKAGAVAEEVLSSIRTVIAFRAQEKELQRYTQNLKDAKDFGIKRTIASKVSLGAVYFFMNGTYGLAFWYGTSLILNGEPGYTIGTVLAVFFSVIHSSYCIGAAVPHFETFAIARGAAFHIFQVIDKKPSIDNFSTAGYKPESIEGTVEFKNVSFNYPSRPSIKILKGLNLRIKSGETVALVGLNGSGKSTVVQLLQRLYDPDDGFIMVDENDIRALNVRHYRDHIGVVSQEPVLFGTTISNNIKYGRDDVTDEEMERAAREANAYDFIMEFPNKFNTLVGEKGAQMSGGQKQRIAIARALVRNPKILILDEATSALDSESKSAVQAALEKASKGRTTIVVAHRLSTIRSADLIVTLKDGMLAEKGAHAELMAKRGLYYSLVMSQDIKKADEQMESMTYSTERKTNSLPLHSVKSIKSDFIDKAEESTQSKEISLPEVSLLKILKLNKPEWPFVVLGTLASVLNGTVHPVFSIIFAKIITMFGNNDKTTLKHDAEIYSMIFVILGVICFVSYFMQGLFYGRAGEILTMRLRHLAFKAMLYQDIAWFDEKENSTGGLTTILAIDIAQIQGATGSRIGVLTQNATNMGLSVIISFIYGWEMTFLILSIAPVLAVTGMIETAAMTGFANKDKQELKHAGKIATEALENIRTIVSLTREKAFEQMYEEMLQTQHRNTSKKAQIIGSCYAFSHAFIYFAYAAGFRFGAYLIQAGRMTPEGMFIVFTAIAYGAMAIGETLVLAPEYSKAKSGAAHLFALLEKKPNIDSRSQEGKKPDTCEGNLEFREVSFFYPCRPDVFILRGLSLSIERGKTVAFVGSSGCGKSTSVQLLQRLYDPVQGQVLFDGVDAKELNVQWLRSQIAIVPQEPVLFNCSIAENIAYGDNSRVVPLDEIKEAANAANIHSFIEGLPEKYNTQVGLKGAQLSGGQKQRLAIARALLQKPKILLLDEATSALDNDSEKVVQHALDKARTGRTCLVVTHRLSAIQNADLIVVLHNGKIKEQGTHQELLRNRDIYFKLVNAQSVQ
Experimental: as §1, §2, §3, §4, §5

[8] = molecular target: T6, ABCA4 (Homo sapiens, UniProt P78363); assay: Correlation of ABCA4 expression with drug sensitivity across the NCI-60; format: cell-based; conditions: Pearson correlation of ABCA4 expression with sensitivity of the 60 cell lines; 1429 compounds; inverse, p < 0.0001
T6 construct: profiled in 60 diverse cancer cell lines (the NCI-60) using real-time RT-PCR; endogenous in cells; host or cells: NCI-60 human cancer cell lines
Experimental: Expression levels are measured by real-time quantitative RT-PCR using the LightCycler RNA Amplification SYBR Green kit and a LightCycler machine (Roche Biochemicals, Indianapolis, Ind.). Specific oligonucleotide probes are designed for each of the ABC transporters using DNAStar Primer Select (DNASTAR Inc.), and they may be synthesized at Lofstrand Laboratories (Gaithersburg, Md.). When possible, the amplicons are designed to encompass exon-intron boundaries to avoid amplification of genomic DNA. Since the Syber Green assay detects accumulation of double stranded DNA, primers are selected (from a battery consisting of about 200 primers) that amplified a single product of the correct size.
as §2, §3, §4
To control the overall false type 1 error rate, both a step-down procedure (Westfall and Young, 1993, Resampling-Based Multiple Testing: Examples and Methods for p-value Adjustment (New York: Wiley)) and a step-up procedure (Reiner et al., 2003, Bioinformatics 19:368-375) were employed to adjust for multiple testing of all 47 genes simultaneously. […] In this analysis, the False Discovery Rate (q-value) at which each compound would be declared was calculated using the step-up procedure for positively correlated test statistics (again true because all correlations being compared are computed against the same ABC gene): in this procedure the first q-value for the largest correlation is the Bonferroni-corrected p-value for that gene; then further q-values are calculated as qj=max(pj*1429/j, qj-1). […]

T2 sequence (P13569 whole entry): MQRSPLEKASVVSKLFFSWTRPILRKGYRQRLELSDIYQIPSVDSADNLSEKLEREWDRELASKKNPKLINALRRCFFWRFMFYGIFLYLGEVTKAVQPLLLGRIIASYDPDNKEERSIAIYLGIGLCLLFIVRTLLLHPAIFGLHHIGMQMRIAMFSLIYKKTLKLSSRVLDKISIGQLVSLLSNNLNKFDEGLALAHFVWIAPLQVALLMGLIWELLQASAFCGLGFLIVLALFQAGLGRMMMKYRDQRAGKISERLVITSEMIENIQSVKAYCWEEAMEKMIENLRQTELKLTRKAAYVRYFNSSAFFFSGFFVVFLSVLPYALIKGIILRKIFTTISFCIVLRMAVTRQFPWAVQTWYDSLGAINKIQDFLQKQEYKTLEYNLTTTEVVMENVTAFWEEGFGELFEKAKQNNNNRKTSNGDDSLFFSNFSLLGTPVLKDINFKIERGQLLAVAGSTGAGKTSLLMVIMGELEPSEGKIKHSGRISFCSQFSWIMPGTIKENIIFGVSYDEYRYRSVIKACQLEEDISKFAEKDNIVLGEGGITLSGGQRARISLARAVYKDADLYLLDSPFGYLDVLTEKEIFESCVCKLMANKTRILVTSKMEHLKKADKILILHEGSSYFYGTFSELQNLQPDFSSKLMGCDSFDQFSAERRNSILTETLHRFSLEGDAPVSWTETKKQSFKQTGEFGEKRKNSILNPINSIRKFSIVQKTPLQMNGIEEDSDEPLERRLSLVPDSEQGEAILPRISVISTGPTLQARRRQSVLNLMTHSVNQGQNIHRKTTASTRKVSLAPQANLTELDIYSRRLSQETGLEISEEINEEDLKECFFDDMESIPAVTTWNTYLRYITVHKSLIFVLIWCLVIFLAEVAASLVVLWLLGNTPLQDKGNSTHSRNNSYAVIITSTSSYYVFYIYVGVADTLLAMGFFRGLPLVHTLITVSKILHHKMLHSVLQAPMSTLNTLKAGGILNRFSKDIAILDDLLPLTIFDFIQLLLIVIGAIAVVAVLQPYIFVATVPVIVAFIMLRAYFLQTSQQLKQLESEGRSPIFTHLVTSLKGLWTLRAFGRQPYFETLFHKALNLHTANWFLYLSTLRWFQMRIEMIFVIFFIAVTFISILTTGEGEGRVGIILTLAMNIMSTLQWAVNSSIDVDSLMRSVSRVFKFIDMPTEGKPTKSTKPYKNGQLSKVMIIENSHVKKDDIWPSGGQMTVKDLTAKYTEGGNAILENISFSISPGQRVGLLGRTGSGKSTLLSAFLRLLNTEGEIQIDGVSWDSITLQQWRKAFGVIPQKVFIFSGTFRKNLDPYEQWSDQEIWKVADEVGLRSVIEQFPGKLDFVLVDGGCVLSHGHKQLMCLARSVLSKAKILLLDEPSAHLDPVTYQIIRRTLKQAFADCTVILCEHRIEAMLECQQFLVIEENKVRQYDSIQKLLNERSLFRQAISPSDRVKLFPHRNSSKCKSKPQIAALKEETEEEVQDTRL
T1 sequence (O95342 whole entry): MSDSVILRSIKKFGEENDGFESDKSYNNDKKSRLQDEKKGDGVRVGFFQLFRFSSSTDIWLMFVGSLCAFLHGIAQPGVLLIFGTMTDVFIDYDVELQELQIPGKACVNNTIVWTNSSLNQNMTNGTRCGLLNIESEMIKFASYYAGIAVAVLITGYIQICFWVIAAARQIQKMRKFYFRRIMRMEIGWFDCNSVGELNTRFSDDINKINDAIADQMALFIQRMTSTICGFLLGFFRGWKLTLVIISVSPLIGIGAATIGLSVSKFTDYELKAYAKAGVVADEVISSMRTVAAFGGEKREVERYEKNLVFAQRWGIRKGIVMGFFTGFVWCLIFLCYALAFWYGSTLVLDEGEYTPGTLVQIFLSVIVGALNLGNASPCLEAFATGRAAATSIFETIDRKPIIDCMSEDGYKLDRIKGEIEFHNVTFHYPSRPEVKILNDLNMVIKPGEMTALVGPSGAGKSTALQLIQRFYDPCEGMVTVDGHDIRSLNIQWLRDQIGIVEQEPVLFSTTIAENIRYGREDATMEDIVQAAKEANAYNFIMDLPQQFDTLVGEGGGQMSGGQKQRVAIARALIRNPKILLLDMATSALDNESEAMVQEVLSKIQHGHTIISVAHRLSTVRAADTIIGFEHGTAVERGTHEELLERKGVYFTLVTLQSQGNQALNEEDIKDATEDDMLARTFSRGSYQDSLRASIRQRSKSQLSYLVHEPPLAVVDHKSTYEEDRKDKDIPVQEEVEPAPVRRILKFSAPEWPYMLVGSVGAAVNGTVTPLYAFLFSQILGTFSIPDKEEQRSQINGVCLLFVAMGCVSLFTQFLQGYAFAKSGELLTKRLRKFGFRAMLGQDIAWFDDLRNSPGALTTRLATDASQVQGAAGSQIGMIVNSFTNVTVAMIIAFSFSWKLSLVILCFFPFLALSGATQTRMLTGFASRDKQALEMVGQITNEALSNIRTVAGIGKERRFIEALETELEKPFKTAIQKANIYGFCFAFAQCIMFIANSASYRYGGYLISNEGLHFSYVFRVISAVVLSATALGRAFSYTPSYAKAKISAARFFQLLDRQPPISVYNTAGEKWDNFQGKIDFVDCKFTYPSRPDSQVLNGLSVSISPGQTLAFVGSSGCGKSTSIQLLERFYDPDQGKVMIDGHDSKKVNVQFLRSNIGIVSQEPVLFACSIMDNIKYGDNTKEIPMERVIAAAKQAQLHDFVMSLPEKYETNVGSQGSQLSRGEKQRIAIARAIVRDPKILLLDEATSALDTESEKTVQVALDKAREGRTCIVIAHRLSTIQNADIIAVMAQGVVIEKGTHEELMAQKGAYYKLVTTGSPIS
T3 sequence (Q99758 whole entry): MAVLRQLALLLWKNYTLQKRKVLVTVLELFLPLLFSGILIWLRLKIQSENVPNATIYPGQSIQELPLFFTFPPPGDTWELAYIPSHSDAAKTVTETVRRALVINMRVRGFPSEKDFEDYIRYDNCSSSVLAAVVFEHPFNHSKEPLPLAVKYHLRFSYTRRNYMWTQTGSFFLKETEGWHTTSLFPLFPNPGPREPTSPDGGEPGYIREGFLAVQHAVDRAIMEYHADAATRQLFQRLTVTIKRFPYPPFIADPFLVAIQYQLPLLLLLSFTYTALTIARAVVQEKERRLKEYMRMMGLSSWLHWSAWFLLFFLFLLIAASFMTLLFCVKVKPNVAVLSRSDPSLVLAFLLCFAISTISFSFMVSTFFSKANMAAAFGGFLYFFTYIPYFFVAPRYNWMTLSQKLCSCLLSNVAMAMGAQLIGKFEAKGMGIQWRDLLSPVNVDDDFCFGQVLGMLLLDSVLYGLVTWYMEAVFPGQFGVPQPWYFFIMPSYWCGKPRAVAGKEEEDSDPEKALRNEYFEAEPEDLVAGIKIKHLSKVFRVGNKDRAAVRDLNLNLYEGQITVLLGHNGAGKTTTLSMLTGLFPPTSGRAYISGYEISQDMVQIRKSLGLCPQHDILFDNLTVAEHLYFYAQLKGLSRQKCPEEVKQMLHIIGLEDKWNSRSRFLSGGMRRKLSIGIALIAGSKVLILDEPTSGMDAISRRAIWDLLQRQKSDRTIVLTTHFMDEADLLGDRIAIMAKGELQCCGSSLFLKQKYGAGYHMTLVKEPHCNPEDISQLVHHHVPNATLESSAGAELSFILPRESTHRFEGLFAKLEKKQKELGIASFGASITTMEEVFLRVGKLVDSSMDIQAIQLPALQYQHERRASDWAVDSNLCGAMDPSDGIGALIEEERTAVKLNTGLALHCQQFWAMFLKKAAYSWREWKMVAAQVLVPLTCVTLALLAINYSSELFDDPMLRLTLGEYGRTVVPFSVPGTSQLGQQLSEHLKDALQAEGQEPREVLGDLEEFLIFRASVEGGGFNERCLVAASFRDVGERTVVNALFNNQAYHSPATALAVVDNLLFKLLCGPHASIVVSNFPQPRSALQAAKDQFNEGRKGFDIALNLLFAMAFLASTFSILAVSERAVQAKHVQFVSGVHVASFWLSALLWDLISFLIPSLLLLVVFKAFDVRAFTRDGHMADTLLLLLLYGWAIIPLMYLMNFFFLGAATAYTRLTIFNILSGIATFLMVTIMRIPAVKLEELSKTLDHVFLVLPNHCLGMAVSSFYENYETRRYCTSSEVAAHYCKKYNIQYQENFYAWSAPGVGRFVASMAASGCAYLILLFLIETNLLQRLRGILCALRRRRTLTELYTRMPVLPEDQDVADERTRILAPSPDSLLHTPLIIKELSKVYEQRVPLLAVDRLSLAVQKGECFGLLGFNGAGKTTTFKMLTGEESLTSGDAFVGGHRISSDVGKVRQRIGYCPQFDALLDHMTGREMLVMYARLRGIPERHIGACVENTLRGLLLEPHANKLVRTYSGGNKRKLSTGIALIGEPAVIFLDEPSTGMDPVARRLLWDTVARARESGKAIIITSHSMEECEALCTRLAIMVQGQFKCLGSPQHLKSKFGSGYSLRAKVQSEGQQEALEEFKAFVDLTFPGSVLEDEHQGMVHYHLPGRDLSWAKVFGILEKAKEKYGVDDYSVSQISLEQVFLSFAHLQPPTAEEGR

SMILES: O=C1C(CO)=C[C@H](O)[C@H]2O[C@@H]12 [NSC 326233]
- Correlation [1]: −0.4430

SMILES: O=[N+]([O-])c1cccc(/C=N/Nc2ccc3ccccc3n2)c1O [NSC 168468]
- Correlation of antiproliferative activity with ABCB1 expression [2]: 0.4839
- Effect of PSC 833 on the heightened sensitivity of KB-V1 cells ([3]; MTT assay with 2 μM PSC 833): completely reversed sensitivity
- Sensitivity of KB-V1 cells relative to parental KB-3-1 (potentiation by ABCB1) ([3]; MTT assay, 72 hrs): equivalent to or greater than the potentiation effect observed for NSC 73306

SMILES: CC(C)(C)c1nc2c(o1)C(=Nc1ccc(F)cc1)c1ccccc1C2=O [NSC 626030]
- Correlation [4]: −0.5025

SMILES: COc1cc(C(=O)N[C@H]2CCc3cc(OC)c(OC)c(OC)c3-c3ccc(OC)c(=O)cc32)cc(OC)c1OC [NSC 355256]
- Correlation [5]: −0.3769

SMILES: O=C1C=C(N2CCN(c3ccccn3)CC2)C(=O)c2c(O)ccc(O)c21 [NSC 658142]
- Correlation [6]: −0.4982
- Correlation [5]: −0.4017

SMILES: OCC1OC(c2scc3c(=S)nc[nH]c23)C(O)C1O (stereo not shown) [NSC 670036]
- Correlation [7]: −0.4561

SMILES: COc1ccc(O)c2c(=O)c3c(OC)cc4c(c3oc12)[C@@H]1C=CO[C@@H]1O4 [NSC 178249]
- Correlation [4]: −0.5603

SMILES: COc1cc(CNc2ccc(SC)cc2)cc(OC)c1OC [NSC 650771]
- Correlation [8]: −0.3792

SMILES: CC1=C(C(=O)Nc2ccccc2)C(c2ccc(N(C)C)cc2)C(C(=O)Nc2ccccc2)=C(C)N1 [NSC 636092]
- Correlation [8]: −0.3977

SMILES: COc1cc2c(c(OC(C)=O)c1OC(C)=O)-c1ccc(SC)c(=O)cc1C(NC(C)=O)CC2 (stereo not shown) [NSC 374979]
- Correlation [5]: −0.4573

SMILES: CC(=O)Oc1c2ccsc2c(OC(C)=O)c2ccsc12 [NSC 695914]
- Correlation [4]: −0.4297

SMILES: CC1(C)C[C@]23[C@@H]4COC(=O)[C@H]2CC[C@H]1[C@@H]3CC4=O [NSC 284437]
- Correlation [1]: −0.5273

SMILES: CC12CCC(CC1)C(C)(C)O2 [NSC 6171]
- Correlation [4]: −0.4552

SMILES: CC(=O)Oc1ccc(C2(c3ccc(F)cc3)OC(=O)c3ccccc32)c(C)c1 (stereo not shown) [NSC 671456]
- Correlation [7]: −0.3650

SMILES: CC1CSC(=S)N1C(=O)N1C(=S)SCC1C (stereo not shown) [NSC 654968]
- Correlation [4]: −0.5519

SMILES: CC1=CC(=O)C(C)=CC1=O [NSC 15309]
- Correlation [1]: −0.4683

SMILES: COc1cc2cc[n+]3c(c2cc1OC)C(=O)c1ccccc1-3 [NSC 627787]
- Correlation [4]: −0.5471

SMILES: C=CCn1c2ccccc2c2c(C)c3cnccc3c(C)c21 [NSC 150834]
- Correlation [1]: −0.5267

SMILES: CCOC(=O)/C(C#N)=C/c1ccc2c(c1)CC1(C2)Cc2cc(CC)c(C(C)O)cc2C1 (stereo not shown) [NSC 670289]
- Correlation [6]: −0.3824
